This note sets out measurements from patent US20260242478A1, “ANTIBODIES FOR TARGETING PSMA AND CD28 AND USES THEREOF” (Janux Therapeutics, Inc., priority 2023, published 2026).

For orientation: IC50 means the concentration that inhibits the measured activity by half. In general, EC50 refers to the concentration needed to bring the measured effect to its halfway point. The low end stands for greater potency, the high end for weaker potency. As usually defined, the Kd is the constant that tells how readily two partners part at equilibrium. What is called kon is a measure of how fast the partners come together. Read a high kon as faster complex formation.

Where only a bound is given, the exact number is not on record here.

Experiment [1] has as its target anti-CD28 scFv harbored in Ab-15 binding to the CD28 antigen. The experiment can be described thus: Inhibition of Ab-15 binding to CD28 by peptides, competition ELISA. The conditions noted are these: Table 20; fixed Ab-15 pre-incubated with 0-100 μM titrated peptide, CD28 antigen coated plates. The procedure: Ab-15 fixed at I nanomolar (nM) concentration was pre-incubated with 0-100 micromolar (μM) titrated peptides. After a short pre-incubation period, the mixture of titrated peptide with fixed Ab-15 were added to the CD28 antigen coated plates. After a short incubation on the plates, bound Ab-15 was detected with a standard horse radish peroxidase conjugated secondary antibody.
A general note: In an ELISA, binding on a coated surface is turned into a signal by an enzyme label.

Experiment [2] addresses Ab-15 (anti-CD28 scFv of SEQ ID NO: 9). The experiment can be described thus: Ab-15 (anti-CD28 scFv) binding to peptides, ELISA. Details: species or system human. The conditions noted are these: Table 20; Ab-15 binding to plate-captured biotinylated peptide or CD28-biotin. The procedure:
Ab-15 diluted in buffer was then added to the peptide captured plates. Bound antibody was detected using a standard horse radish peroxidase conjugate secondary antibody.

The subject of experiment [3] is PSMA Fab (SEQ ID NOs: 19, 20). The experiment can be described thus: PSMA Fab binding to peptides, ELISA. The conditions noted are these: for EC50: PSMA Fab binding to biotinylated peptide, ELISA. On the procedure: Peptides of Table 9 were evaluated for their ability to bind to PSMA Fab in a standard enzyme linked immunosorbent assay (ELISA) format. […] PSMA Fab diluted in buffer was then added to the peptide captured plates. Bound antibody was detected using a standard horse radish peroxidase conjugate secondary antibody.

The subject of experiment [4] is PSMA Fab (SEQ ID NOs: 19, 20). The experiment can be described thus: Kinetic binding of peptides to PSMA Fab, BLI. The procedure: Kinetic binding of the peptides of Table 9 to PSMA Fab (SEQ ID NOs: 19, 20) was evaluated using biolayer interferometry (BLI). Briefly, biotinylated peptides were loaded onto a streptavidin coated Octet® V SAX biosensor, quenched in biocytin, and baselined in buffer. […] After a short association period, sensors were transferred into buffer and the dissociation of bound Ab-1 was measured. Association and dissociation signals were recorded in real time and analyzed using a 1:1 binding model within the instrument software. Analysis using a 1:1 binding model enabled the calculation of the on and off rate constant as well as affinity, Kn.

In experiment [5] the target is anti-CD28 Fab (SEQ ID NOs: 696, 697) binding to CD28 antigen. The experiment in a line: Inhibition of anti-CD28 Fab binding to CD28 by peptides, competition ELISA (incl. alanine scanning). The conditions noted are these: Table 25; anti-CD28 Fab fixed at 1 nM, 0-100 μM peptides.
The target in experiment [6] is anti-CD28 Fab (SEQ ID NOs: 696, 697). The experiment can be described thus: anti-CD28 Fab binding to peptides, ELISA. The settings on record: for EC50: anti-CD28 Fab.
Experiment [7] has as its target anti-CD28 scFv (SEQ ID NO: 9). The experiment in a line: Kinetic binding of anti-CD28 scFv to peptides, bio-layer interferometry (Octet RED96). The conditions noted are these: Table 36; anti-CD28 scFv titrated 100-12.5 nM, 200 nM peptide loaded. On the procedure: (§1) Briefly, streptavidin biosensors were loaded with biotinylated peptides and baselined in buffer. […] After a short association period, sensors were transferred into buffer and the dissociation of bound anti-CD28 scFv was measured. The timing and steps of the experiment are shown in the accompanying table. Association and dissociation signals were recorded in real time and analyzed using a 1:1 binding model within the instrument software. Analysis using a 1:1 binding model enabled the calculation of the on and off rate constants as well as affinity, KD.
as §1, with “KD. FIGS. 70A-70F illustrate kinetic binding of anti-CD28 scFv binding to peptides as measured by Octet. FIGS. 70G-70U illustrate kinetic binding of peptides to the anti-CD28 scFv as measured by Octet.” for “KD.”
In general terms: BLI is a label-free optical method that tracks binding on a fibre tip over time.

Experiment [8] deals with anti-CD28 scFv (disulfide) (SEQ ID NO: 10). The experiment in a line: anti-CD28 scFv (disulfide) binding to peptides, ELISA. The conditions noted are these: Table 27. On the procedure:
Peptides were evaluated for their ability to bind to ant-CD28 Fab (SEQ ID NOs: 696.697) or anti-CD28 scFv (disulfide) (SEQ ID NO: 10) in a standard ELISA format as described above.

In experiment [9] the target is anti-CD28 scFv (disulfide) (SEQ ID NO: 10) binding to CD28 antigen. The experiment can be described thus: Inhibition of anti-CD28 scFv (disulfide) binding to CD28 by peptides, competition ELISA. The conditions noted are these: anti-CD28 scFv (disulfide) fixed at 0.3 nM, 0-100 μM peptides.
Experiment [10] deals with anti-CD28 Fab (SEQ ID NOs: 696, 697). The experiment can be described thus: Kinetic binding of peptides to anti-CD28 Fab, BLI. The settings on record: for Off rate t½: Table 26; for kdis / kon: Table 30, BLI.

As for ADWCPRERWVDCFF [Peptide-19], the IC50 in experiment [1] was determined as 4420 nM. In [2], this sequence returned a concentration for a half-maximal effect (EC50) of 32.5 nM.
The like results for CFYAEYYDQVYSFC [Peptide-18] were, in that order, 3250 nM and 32.2 nM.
On to IAVLCQPNWMCAGF [Peptide-180], for which the “binding to the PSMA Fab” value in [3] was “strong binding”. The EC50 in experiment [3] (Table 38) was found to be 33 nM. The “Off rate t1/2” value was less than 1 min in experiment [4] (Table 38, 1:1 binding model) and 0.75 min in [4] (Table 39, 1:1 binding model).
For the sequence LCAAGFTYPWPLCL [Peptide-155], the half-maximal inhibitory concentration (IC50) in [5] was more than 100000 nM. The sequence further yielded an EC50 in experiment [6] (Table 25) of more than 1000 nM.
The like results for LCKPGVPYKWPTCL [Peptide-156] were, in that order, more than 100000 nM and more than 1000 nM.
As to LMKWCTPRWMCAAE [Peptide-179], the “binding to the PSMA Fab” value in experiment [3] is “strong binding”. Besides, the concentration for a half-maximal effect (EC50) in experiment [3] (Table 38) is 5.9 nM; in experiment [3] (Table 39), 120 nM. In addition, the “Off rate t1/2” value in experiment [4] (Table 38, 1:1 binding model) is recorded as less than 1 min; in experiment [4] (Table 39, 1:1 binding model), 1.09 min.
Consider MCQWDELNYWMDCD [Peptide-202], for which, in experiment [4] (Table 39, 1:1 binding model), the “Off rate t1/2” value was less than 1 min.
For the sequence MCQWDKINYWMDCD [Peptide-205], the “Off rate t1/2” value in experiment [4] (Table 39, 1:1 binding model) is less than 1 min.
Turning to MDWCPRDLWVHCFA [Peptide-41], in experiment [7], the affinity, expressed as Kd, was 42.3 nM; the kdis worked out at 0.00154 s⁻¹; the kon was 36400 M⁻¹ s⁻¹. The EC50 in experiment [8] was determined as 98.5 nM. Further, the 50% effective concentration (EC50) in [6] (Table 24) was 490 nM.
As for QCTWNEKTWWMECE [Peptide-204], the “Off rate t1/2” value in experiment [4] (Table 39, 1:1 binding model) was less than 1 min.
For the sequence SCAAGASYAWPYCA [Peptide-106], the 50% inhibitory concentration (IC50) in experiment [9] (Table 29) was more than 100000 nM.
Consider SCAAGASYAWPYCL [Peptide-92], for which the 50% effective concentration (EC50) is more than 1000 nM in [8], 54 nM in experiment [6] (Table 24) and 18.9 nM in [6] (Table 25). In experiment [9] (Table 27), the IC50 is more than 100000 nM. Moreover, in experiment [6], the “binding to the anti-CD28 Fab” value is given as “strong binding”.
On to SKLLCVPPWMCYHV [Peptide-194], for which, in experiment [4] (Table 39, 1:1 binding model), the “Off rate t1/2” value is reported as less than 1 min.
Regarding YCAGHAWQYANKCL [Peptide-113], the IC50 in experiment [9] (Table 29) is more than 100000 nM.
Regarding YCAGHAWQYINKCL [Peptide-87], the EC50 in experiment [8] turned out to be 156 nM; in experiment [6] (Table 24), 49 nM; in experiment [6] (Table 26), 30.6 nM. Besides, the “Off rate t½” value in experiment [10] was determined as 0.7 min. Besides, the kdis in experiment [10] amounted to 0.0202 s⁻¹. This sequence also returned a kon in experiment [10] of 10000 M⁻¹ s⁻¹. Moreover, the “binding to the anti-CD28 Fab” value in [6] is listed as “strong binding”.
On to YCEGHAPEYIAKCL [Peptide-121], for which, in experiment [10], the kdis worked out at 0.028 s⁻¹ and the kon was 33700 M⁻¹ s⁻¹. The EC50 in [6] (Table 26) is 7.1 nM.
The like results for YCEGHLPEYIEKCL [Peptide-120] were, in that order, 0.0239 s⁻¹, 25800 M⁻¹ s⁻¹ and 3.1 nM.
For the sequence YCEGHLPEYIQKCL [Peptide-134], in experiment [10], the “Off rate t½” value is reported as 0.9 min and the kdis worked out at 0.0115 s⁻¹.
Regarding YCEGHLPEYIWKCL [Peptide-135], the “Off rate t½” value in experiment [10] was 0.9 min. This sequence yielded an EC50 in experiment [6] (Table 26) of 2.1 nM.
The sequence YCEGHLPEYLAKCL [Peptide-127] returned a kdis in experiment [10] of 0.0118 s⁻¹. This sequence also had an EC50 in experiment [6] (Table 26) of 1.7 nM.
As to YCEGHLPEYREKCL [Peptide-126], the kdis in experiment [10] is 0.0191 s⁻¹.
As to YCEGHLPEYRNKCL [Peptide-132], in [10], the kdis amounted to 0.0138 s⁻¹. For the same sequence, a half-maximal effect in [6] (Table 26) (EC50) was put at 3.2 nM.
